For 26 compounds, ring closure, yield of all isomers, EC50 and CC50 results are on record in US11312727B1, “Macrocyclic flu endonuclease inhibitors” (Janssen BioPharma, Inc., priority 2018, dated 2022).

The subject of data set [1] is Influenza strain A549 A/WSN/33 (H1N1). Put plainly: microbe, parasite or virus in culture. The note with it: A549 cells, influenza A/WSN/33 (H1N1), 20 hours incubation, read-out: A549_A(H1N1) EC50. Type of data set: cell-based.
Data set [2] has as its system Human lung carcinoma A549 cells. The note with it: uninfected A549 cells, CellTiter-Glo. (In ATP-based viability assays light output follows the ATP content of the culture.)
Data set [3] can be described thus: in vitro. The note with it: human, CC50, uninfected A549 cells, CellTiter-Glo.

Like-named read-outs stand apart in the source and are kept apart here.

Under “from C=CCOc1ccccc1C(c1ccccc1)N1CN(C(C=C)CC)C(=O)c2c(OCc3ccccc3)c(=O)ccn21, rcm bond, Hoveyda-Grubbs catalyst 2nd generation, DCE, […], 80.0 °C, 2.0 h”, `CCC1C=CCOc2ccccc2C(c2ccccc2)N2CN1C(=O)c1c(OCc3ccccc3)c(=O)ccn12` (centres unmarked) returned a ring closure, yield of all isomers of 62.5%.
Compound `O=C1CCN2CN(C(c3ccccc3)c3ccccc3CN1)n1ccc(=O)c(OCc3ccccc3)c1C2=O` (centres unmarked) returned a ring closure, yield of all isomers (from NCc1ccccc1C(c1ccccc1)N1CN(CCC(=O)O)C(=O)c2c(OCc3ccccc3)c(=O)ccn21, amide bond, HATU, DMF, […], 80.0 °C) of 51.7%.
`O=C1c2c(OCc3ccccc3)c(=O)ccn2N2CN1C1(C=CCOc3c(ccc(F)c3F)C2c2ccccc2)CCC1` (centres unmarked): the ring closure, yield of all isomers (from C=CCOc1c(C(c2ccccc2)N2CN(C3(C=C)CCC3)C(=O)c3c(OCc4ccccc4)c(=O)ccn32)ccc(F)c1F, rcm bond, Hoveyda-Grubbs II, dichloroethane, 12.05 mM, 100.0 °C, 6.0 h) was 40.7%.
As for `O=C1c2c(OCc3ccccc3)c(=O)ccn2N2CN1CC1CC1COc1ccccc1C2c1ccccc1` (centres unmarked), the ring closure, yield of all isomers (from O=C1c2c(OCc3ccccc3)c(=O)ccn2N(C(c2ccccc2)c2ccccc2O)CN1CC1CC1CBr, ether bond, K2CO3, CH3CN, 44.8 mM, […], 0.5 h) came to 55.8%.
For `O=C1c2c(OCc3ccccc3)c(=O)ccn2N2CN1CC=CCCOc1cccc(c1)C2c1ccccc1` (centres unmarked), the ring closure, yield of all isomers (from C=CCCOc1cccc(C(c2ccccc2)N2CN(CC=C)C(=O)c3c(OCc4ccccc4)c(=O)ccn32)c1, rcm bond, Hoveyda-Grubbs 2nd generation, DCE, 12.1 mM, 90.0 °C, […]) amounted to 8.9%.
Under “from C=CCOc1c(F)cccc1C(c1cccc(F)c1)N1CN(CC=C)C(=O)c2c(OCc3ccccc3)c(=O)ccn21, rcm bond, Hoveyda-Grubbs second generation catalyst, DCE, 19.6 mM, 80.0 °C, 2.0 h”, `O=C1c2c(OCc3ccccc3)c(=O)ccn2N2CN1CC=CCOc1c(F)cccc1C2c1cccc(F)c1` (centres unmarked) registered a ring closure, yield of all isomers of 13.6%.
For the compound `O=C1c2c(OCc3ccccc3)c(=O)ccn2N2CN1CC=CCOc1cccc3c1C2c1ccccc1SC3` (centres unmarked), the ring closure, yield of all isomers (from C=CCOc1cccc2c1C(N1CN(CC=C)C(=O)c3c(OCc4ccccc4)c(=O)ccn31)c1ccccc1SC2, rcm bond, Hoveyda-Grubbs catalyst 2nd generation, DCE, 16.04 mM, 80.0 °C, […]) was 15%.
In turn, `O=C1c2c(OCc3ccccc3)c(=O)ccn2N2CN1CC=CCOc1ccccc1C2c1ccccc1` (centres unmarked) displayed a ring closure, yield of all isomers (from C=CCOc1ccccc1C(c1ccccc1)N1CN(CC=C)C(=O)c2c(OCc3ccccc3)c(=O)ccn21, rcm bond, Hoveyda-Grubbs 2nd generation, DCE, […], 80.0 °C, 2.0 h) of 21.4%.
For the compound `O=C1c2c(OCc3ccccc3)c(=O)ccn2N2CN1CC=CCOc1ccccc1C2c1ccccn1` (centres unmarked), under “from C=CCOc1ccccc1C(c1ccccn1)N1CN(CC=C)C(=O)c2c(OCc3ccccc3)c(=O)ccn21, rcm bond, Hoveyda-Grubbs catalyst 2nd generation, DCE, 14.6 mM, 80.0 °C, 2.0 h”, the ring closure, yield of all isomers is 9.7%.
Consider `O=C1c2c(OCc3ccccc3)c(=O)ccn2N2CN1CCC=CCOc1cccc3c1C2c1ccccc1SC3` (centres unmarked), for which, under “from C=CCCN1CN(C2c3ccccc3SCc3cccc(OCC=C)c32)n2ccc(=O)c(OCc3ccccc3)c2C1=O, rcm bond, Hoveyda-Grubbs catalyst 2nd generation, DCE, 13.86 mM, 80.0 °C, […]”, the ring closure, yield of all isomers turned out to be 19.8%.
The compound `O=C1c2c(OCc3ccccc3)c(=O)ccn2N2CN1CCC=CCc1ccccc1C2c1ccccc1` (centres unmarked) had a ring closure, yield of all isomers (from C=CCCN1CN(C(c2ccccc2)c2ccccc2CC=C)n2ccc(=O)c(OCc3ccccc3)c2C1=O, rcm bond, Hoveyda-Grubbs 2nd generation, DCE, 12.7 mM, 80.0 °C, 3.0 h) of 69.2%.
The EC50 is the concentration at which the effect is half-maximal. As a reminder, the CC50 is the concentration at which the toxic effect on the cells reaches its halfway point. On to `O=C1c2c(O)c(=O)ccn2N2CN1C/C=C\CCc1ccccc1C2c1ccncc1` (single isomer, unassigned) [Compound 52A, (16*R,*Z)-4-hydroxy-16-(pyridin-4-yl)-7,10,11,16-tetrahydro-6,17-methanobenzo[k]pyrido[1,2-b][1,2,5]triazacyclotridecine-3,5-dione], for which, in data set [1], the EC50 is > 1 µM. The CC50 in data set [2] was > 2 µM.
With `O=C1c2c(O)c(=O)ccn2N2CN1C/C=C\CCc1ccccc1C2c1ccncc1` (single isomer, unassigned) [Compound 52B, (16*S,*Z)-4-hydroxy-16-(pyridin-4-yl)-7,10,11,16-tetrahydro-6,17-methanobenzo[k]pyrido[1,2-b][1,2,5]triazacyclotridecine-3,5-dione], the EC50 in data set [1] was found to be 0.084 µM. The CC50 in data set [2] was > 2 µM.
For `O=C1c2c(O)c(=O)ccn2N2CN1CCCCCOc1cccc3c1[C@@H]2c1ccccc1SC3` (single isomer, unassigned) [Compound 69A, (23b*R)-6-hydroxy-10,11,12,13,18,23b-hexahydro-9H-1,8-methano[1]benzothiepino[5,4,3-lm]pyrido[2,1-i][1,7,10,11]benzoxatriazacyclotetradecine-5,7-dione], in that order: > 1 µM and > 2 µM.
The like results for `O=C1c2c(O)c(=O)ccn2N2CN1CCCCCOc1cccc3c1[C@H]2c1ccccc1SC3` (single isomer, unassigned) [Compound 69B, (23b*S)-6-hydroxy-10,11,12,13,18,23b-hexahydro-9H-1,8-methano[1]benzothiepino[5,4,3-lm]pyrido[2,1-i][1,7,10,11]benzoxatriazacyclotetradecine-5,7-dione] were, in that order, 0.027 µM and > 2 µM.
Regarding `CC[C@@H]1/C=C/COc2cccc3c2[C@H](c2ccccc2SC3)N2CN1C(=O)c1c(O)c(=O)ccn12` [Compound 92AB, (9R,17aR,E)-9-ethyl-12-hydroxy-2,6,9,17a-tetrahydro-3,4-(epiprop[1]en[1]yl[3]ylidene)-10,17-methanobenzo[6,7]thiepino[4,5-c]pyrido[1,2-f][1]oxa[5,6,9]triazacyclotridecine-11,13-dione], the EC50 in data set [1] (Influenza A virus, A549, 20 h) was > 0.5 µM. Also, the CC50 in data set [3] was > 1 µM.
The like results for `CC[C@@H]1/C=C\COc2cccc3c2[C@@H](c2ccccc2SC3)N2CN1C(=O)c1c(O)c(=O)ccn12` [Compound 92BB, (13R,21aS,Z)-13-ethyl-16-hydroxy-6,10,13,21a-tetrahydro-7,8-(epiprop[1]en[1]yl[3]ylidene)-14,21-methanobenzo[6,7]thiepino[4,5-c]pyrido[1,2-f][1]oxa[5,6,9]triazacyclotridecine-15,17-dione] were, in that order, 0.0015 µM and > 0.1 µM.
For the compound `CC[C@H]1/C=C/COc2c(ccc(F)c2F)[C@@H](c2ccccc2)N2CN1C(=O)c1c(O)c(=O)ccn12` [Compound 101AA, (9S,18R,E)-9-ethyl-3,4-difluoro-12-hydroxy-18-phenyl-6,9-dihydro-18H-10,17-methanobenzo[b]pyrido[1,2-f][1]oxa[5,6,9]triazacyclotridecine-11,13-dione], the EC50 in data set [1] (Influenza A virus, A549, 20 h) came to 0.0007 µM. Besides, the CC50 in data set [3] was > 0.1 µM.
Take `CC[C@@H]1/C=C/COc2c(ccc(F)c2F)[C@@H](c2ccccc2)N2CN1C(=O)c1c(O)c(=O)ccn12` [Compound 101AB, (9R,18R,E)-9-ethyl-3,4-difluoro-12-hydroxy-18-phenyl-6,9-dihydro-18H-10,17-methanobenzo[b]pyrido[1,2-f][1]oxa[5,6,9]triazacyclotridecine-11,13-dione]: the EC50 in data set [1] (Influenza A virus, A549, 20 h) was determined as 0.0013 µM. Also, the CC50 in data set [3] is > 0.2 µM.
For `CC[C@H]1/C=C/COc2c(ccc(F)c2F)[C@H](c2ccccc2)N2CN1C(=O)c1c(O)c(=O)ccn12` [Compound 101BA, (9S,18S,E)-9-ethyl-3,4-difluoro-12-hydroxy-18-phenyl-6,9-dihydro-18H-10,17-methanobenzo[b]pyrido[1,2-f][1]oxa[5,6,9]triazacyclotridecine-11,13-dione], in that order: > 0.1 µM and > 0.2 µM.
As to `CC[C@@H]1/C=C/COc2c(ccc(F)c2F)[C@H](c2ccccc2)N2CN1C(=O)c1c(O)c(=O)ccn12` [Compound 101BB, (9R,18S,E)-9-ethyl-3,4-difluoro-12-hydroxy-18-phenyl-6,9-dihydro-18H-10,17-methanobenzo[b]pyrido[1,2-f][1]oxa[5,6,9]triazacyclotridecine-11,13-dione], in data set [1] (Influenza A virus, A549, 20 h), the EC50 came to 5.03 µM. The same compound yielded a CC50 in data set [3] of 29.9 µM.
For `O=C1c2c(O)c(=O)ccn2N2CN1C1(/C=C/COc3c(ccc(F)c3F)[C@H]2c2ccccc2)CC1` [Compound 102A, (18′R,E)-3′,4′-difluoro-12′-hydroxy-18′-phenyl-6′H,18′H-spiro[cyclopropane-1,9′-[10,17]methanobenzo[b]pyrido[1,2-f][1]oxa[5,6,9]triazacyclotridecine]-11′,13′-dione], the EC50 in data set [1] (Influenza A virus, A549, 20 h) worked out at 0.0009 µM. Besides, in data set [3], the cytotoxic concentration (CC50) was > 0.1 µM.
Turning to `O=C1c2c(O)c(=O)ccn2N2CN1C1(/C=C/COc3c(ccc(F)c3F)[C@@H]2c2ccccc2)CC1` [Compound 102B, (18'S,E)-3′,4′-difluoro-12′-hydroxy-18′-phenyl-6′H,18′H-spiro[cyclopropane-1,9′-[10,17]methanobenzo[b]pyrido[1,2-f][1]oxa[5,6,9]triazacyclotridecine]-11′,13′-dione], the EC50 in data set [1] (Influenza A virus, A549, 20 h) was found to be 3.36 µM. The compound also yielded a CC50 in data set [3] of 33.9 µM.
As to `O=C1c2c(O)c(=O)ccn2N2CN1C/C=C/COc1c(F)cccc1[C@@H]2c1ccccc1C1CC1` [Compound 123B, (18S,E)-18-(2-cyclopropylphenyl)-4-fluoro-12-hydroxy-6,9-dihydro-18H-10,17-methanobenzo[b]pyrido[1,2-f][1]oxa[5,6,9]triazacyclotridecine-11,13-dione], the EC50 in data set [1] (Influenza A virus, A549, 20 h) was > 0.1 µM. Also, in data set [3], the CC50 was > 0.2 µM.
Turning to `O=C1c2c(O)c(=O)ccn2N2CN1C1(/C=C/COc3c(ccc(F)c3F)[C@H]2c2ccccc2)CCC1` [Compound 146A, (18′R,E)-3′,4′-difluoro-12′-hydroxy-18′-phenyl-6′H,18′H-spiro[cyclobutane-1,9′-[10,17]methanobenzo[b]pyrido[1,2-f][1]oxa[5,6,9]triazacyclotridecine]-11′,13′-dione], in data set [1] (Influenza A virus, A549, 20 h), the EC50 was determined as 0.00065 µM. Further, the CC50 in data set [3] is > 0.1 µM.
As to `O=C1c2c(O)c(=O)ccn2N2CN1C1(/C=C/COc3c(ccc(F)c3F)[C@@H]2c2ccccc2)CCC1` [Compound 146B, (18'S,E)-3′,4′-difluoro-12′-hydroxy-18′-phenyl-6′H,18′H-spiro[cyclobutane-1,9′-[10,17]methanobenzo[b]pyrido[1,2-f][1]oxa[5,6,9]triazacyclotridecine]-11′,13′-dione], in data set [1] (Influenza A virus, A549, 20 h), the EC50 stood at 0.34 µM. Also, the CC50 in data set [3] is > 10 µM.
